The source of these data is patent publication US20110275707A1, “SUBSTITUTED AFPO (6-ARYL-4H-FURO[3,2-C]PYRAN-4-ONE) DERIVATIVES AS ANTI-CANCER AGENTS” (priority 2008, published 2011).

Molecules are shown by their SMILES.

Data set [1] concerns SK-BR-3 (HER2+) human tumor cell line. Put plainly: Cell growth inhibition assay (SRB), SK-BR-3. Type of data set: cell-based. The conditions noted are these: SK-BR-3, compared with 1. The method, then:
Cell Growth Inhibition Assay. All stock cultures are grown in T-25 flasks. Freshly trypsinized cell suspensions were seeded in 96-well microliter plates with compounds added from DMSO-diluted stock. The plates were incubated for an additional 72 h after attachment and drug addition, and the assay was terminated by 10% TCA. Then, 0.4% SRB dye in 1% HOAc was added to stain the cells for 10 minutes. Unbound dye was removed by repeated washing with 1% HOAc and the plates were air dried. Bound stain was subsequently solved with 10 mM trizma base, and the absorbance read at 515 nm. Growth inhibition of 50% (GI50) is calculated as the drug concentration, which caused a 50% reduction in the net protein increase in control cells during the drug incubation. The mean ED50 is the concentration of agent that reduces cell growth by 50% under the experimental conditions and is the average from at least two independent determinations. Variation between replicates was no more than 5% of the mean. The following human tumor cell lines were used in the assay: A549 (non small cell lung cancer), ZR-75-1 (estrogen receptor positive breast cancer), MDA MB-231 (estrogen receptor negative breast cancer), SKBR-3 (estrogen receptor negative, HER-2 over-expressing breast cancer), KB (nasopharyngeal carcinoma), KB-VIN (vincristine-resistant KB subline). […]

`COc1cccc(-c2cc3occ(C)c3c(=O)o2)c1` [Compound 11, 6-(3-Methoxyphenyl)-3-methyl-4H-furo[3,2-c]pyran-4-one] gave a melting point of 119 to 121 °C.
Turning to `Cc1coc2cc(-c3cccc(O)c3)oc(=O)c12` [Compound 13, 6-(3-Hydroxyphenyl)-3-methyl-4H-furo[3,2-c]pyran-4-one], the melting point lay in the range of 225 to 227 °C.
Same read-out and setting: the value for `Cc1coc2cc(-c3ccc(O)cc3)oc(=O)c12` [Compound 18, 6-(4-Hydroxyphenyl)-3-methyl-4H-furo[3,2-c]pyran-4-one] was 258 to 260 °C; that for `Cc1cccc(-c2cc3occ(C)c3c(=O)o2)c1` [Compound 10, 3-Methyl-6-m-tolyl-4H-furo[3,2-c]pyran-4-one] was 135 to 137 °C.
`Cc1coc2cc(-c3cc(O)cc(O)c3)oc(=O)c12` [Compound 26, 6-(3,5-Dihydroxyphenyl)-3-methyl-4H-furo[3,2-c]pyran-4-one] registered a melting point greater than 300 °C.
As for `Cc1ccc(-c2cc3occ(C)c3c(=O)o2)cc1` [Compound 16, 3-Methyl-6-p-tolyl-4H-furo[3,2-c]pyran-4-one], the melting point lay within 153 to 155 °C.
In turn, `CCOc1cccc(-c2cc3occ(C)c3c(=O)o2)c1` [Compound 12, 6-(3-Ethoxyphenyl)-3-methyl-4H-furo[3,2-c]pyran-4-one] came in with a melting point of 128 to 130 °C.
`COc1ccc(-c2cc3occ(C)c3c(=O)o2)cc1OC` [Compound 22, 6-(3,4-Dimethoxyphenyl)-3-methyl-4H-furo[3,2-c]pyran-4-one] yielded a melting point of 154 to 156 °C.
In the case of `COc1cc(-c2cc3occ(C)c3c(=O)o2)cc(OC)c1OC` [Compound 27, 3-Methyl-6-(3,4,5-trimethoxyphenyl)-4H-furo[3,2-c]pyran-4-one], the melting point lay in the range of 201 to 203 °C.
Turning to `Cc1cc(C)cc(-c2cc3occ(C)c3c(=O)o2)c1` [Compound 24, 6-(3,5-Dimethylphenyl)-3-methyl-4H-furo[3,2-c]pyran-4-one], the melting point lay within 171 to 173 °C.
For the molecule `COc1cc(OC)cc(-c2cc3occ(C)c3c(=O)o2)c1` [Compound 25, 6-(3,5-Dimethoxyphenyl)-3-methyl-4H-furo[3,2-c]pyran-4-one], the melting point lay within 153 to 155 °C. Further, in data set [1], the “potency against SK-BR-3 relative to 1” value is “approximately threefold”.
For the molecule `CCc1coc2cc(-c3cc(OC)cc(OC)c3)oc(=O)c12` [Compound 28, 6-(3,5-Dimethoxyphenyl)-3-ethyl-4H-furo[3,2-c]pyran-4-one], the melting point lay within 131 to 133 °C.
Still for that read-out and setting: the value for `COc1cccc(-c2cc3occ(C)c3c(=O)o2)c1OC` [Compound 19, 6-(2,3-Dimethoxyphenyl)-3-methyl-4H-furo[3,2-c]pyran-4-one] was 111 to 113 °C; that for `Cc1coc2cc(-c3cccc(O)c3O)oc(=O)c12` [Compound 20, 6-(2,3-Dihydroxyphenyl)-3-methyl-4H-furo[3,2-c]pyran-4-one] was 239 to 241 °C; that for `Cc1coc2cc(-c3ccc(F)cc3)oc(=O)c12` [Compound 15, 6-(4-Fluorophenyl)-3-methyl-4H-furo[3,2-c]pyran-4-one] was 175 to 177 °C.
`Cc1coc2cc(-c3cccc(F)c3)oc(=O)c12` [Compound 14, 6-(3-Fluorophenyl)-3-methyl-4H-furo[3,2-c]pyran-4-one] gave a melting point of 158 to 160 °C.
Molecule `Cc1ccc(-c2cc3occ(C)c3c(=O)o2)cc1C` [Compound 21, 6-(3,4-Dimethylphenyl)-3-methyl-4H-furo[3,2-c]pyran-4-one] yielded a melting point of 182 to 184 °C.
Molecule `Cc1coc2cc(-c3ccccc3)oc(=O)c12` [Compound 9, 3-Methyl-6-phenyl-4H-furo[3,2-c]pyran-4-one] gave a melting point of 105 to 107 °C.
Take `Cc1coc2cc(-c3ccc(O)c(O)c3)oc(=O)c12` [Compound 23, 6-(3,4-Dihydroxyphenyl)-3-methyl-4H-furo[3,2-c]pyran-4-one]: the melting point was 259 to 261 °C.
On to `COc1cc(OC)cc(-c2cc3occ(C)c3c(=S)o2)c1` [Compound 30, 6-(3,5-Dimethoxyphenyl)-3-methyl-4H-furo[3,2-c]pyran-4-thione], for which the melting point lay in the range of 147 to 149 °C.
Still for that read-out and setting: in the case of `COc1ccc(-c2cc3occ(C)c3c(=O)o2)cc1` [Compound 17, 6-(4-Methoxyphenyl)-3-methyl-4H-furo[3,2-c]pyran-4-one] it was 146 to 148 °C.
In turn, `COc1cc(OC)cc(-c2cc3oc(C)c(C)c3c(=O)o2)c1` [Compound 29, 6-(3,5-Dimethoxyphenyl)-2,3-dimethyl-4H-furo[3,2-c]pyran-4-one] showed a melting point of 163 to 165 °C.
